From patent US9458101B2 (priority 2009, dated 2016) come the findings set out here.

Series [1] relates to NCI-H226 (Human lung squamous cell carcinoma). The series can be described thus: cells. The series is classed as cell-based. The conditions noted are these: NCI-H226, 72 hours, precision +/−0.5 or better. The source says:
(§1) A full factorial experimental design was used, for a total of 28 cases.
(§2) For each (cell line, compound) pair, the following conditions were used, with each condition being assigned to a lane on a microtiter plate: • a. Seven or eight concentration levels between 1×10^−10 M and 1×10^−3 M. • b. A control with cells and media only. • c. A control with cells, media and DMSO only. The DMSO was at a concentration approximately equal to that used in the highest drug concentration level.
(§3) Additionally, 6-8 replicates (wells) of each condition were done on the plate. Drug solutions were prepared by dissolving the solid compounds in DMSO and then diluting in water. An approximately equal number of cells were introduced into each well of the plate and cells were incubated for 72 hours. An MTS assay was performed and absorbance values were measured with a spectrophotometer. Finally, a log IC50 parameter was calculated by fitting a 4-parameter logistic model to the data using an implementation of the Levenberg-Marquardt algorithm.

Series [2] concerns CCRF-CEM (Human T-lymphoblastoids from ALL). The series can be described thus: cells. The series is classed as cell-based. Conditions: 72 hours, precision +/−0.5 or better.
Excerpt: as §1, §2, §3

The test system of series [3] is MCF-7 (Human mammary gland adenocarcinoma). The series can be described thus: cells. It is filed as cell-based. Conditions: MCF7, MCF-7, 72 hours, precision +/−0.5 or better.
Excerpt: as §1, §2, §3

For series [4], the system named is A549 (Human lung adenocarcinoma). The series can be described thus: cells. The series is classed as cell-based. Conditions: A549, 72 hours, precision +/−0.5 or better.
Excerpt: as §1, §2, §3

The subject of series [5] is CEM cells. The series is classed as cell-based, Human.
The nature of series [6]: Dissolution of drug for cytotoxicity testing. It is filed as physicochemical. On the set-up: key: X*: Did not dissolve at normal pH. The conditions noted are these: footnote of Table 3. The method, then: Drug solutions were prepared by dissolving it into 4.5% dimethylsulfoxide and diluting with distilled water to a final concentration of 1 mM. A series of dilutions were prepared and a wavelength scan of the diluted solution was used to determine the wavelength of maximum absorbance for each compound. Five standardized drug concentrations were scanned at this pre-determined wavelength to obtain an estimate of the compound's extinction coefficient.

What is called IC50 is the concentration at which inhibition is half-maximal.

For `COc1cc2c(c(OC)c1OC)-c1ccc(SC)c(=O)cc1[C@@H](NC(=O)CNC(=O)C(F)(F)F)CC2` [Compound 47a], the IC50 in series [1] was 0.0501 µM; in series [2] it was 0.00631 µM; in series [3], 126 µM; in series [4], 0.0631 µM.
In the case of `COc1c(O)cc2c(c1OC)-c1ccc(SC)c(=O)cc1[C@@H](N(C(C)=O)C(=O)CNC(=O)C(F)(F)F)CC2` [Compound 47, N-[(7S)-3-hydroxy-1,2-dimethoxy-10-methylsulfanyl-9-oxo-5,6,7,9-tetrahydrobenzo[α]heptalen-7-yl]-N-[(trifluoroacetyl)glycyl]acetamide], the “fold lower IC50 than IC50 of (39)” value in series [5] is listed as “about 8 fold”.
As for `COc1cc2c(c(OCc3ccccc3Cl)c1OC)-c1ccc(OC)c(=O)cc1[C@@H](NC(C)=O)CC2` [Compound 14, N-[(7S)-2,3,10-trimethoxy-9-oxo-1-((phenyl(2-chloro))methoxy)-5,6,7,9-tetrahydrobenzo[α]heptalen-7-yl]acetamide], the “dissolution at normal pH” value in series [6] was “X*”.
For the molecule `COc1cc2c(c(OC)c1OC)-c1ccc(OC)c(=O)cc1[C@@H](NC(=O)CNC(=O)C(F)(F)F)CC2` [Compound 28a], the results for the IC50 in series [1], in series [2] and in series [4] were 0.316 µM, 0.0398 µM and 0.631 µM, respectively.
With `C=CCOc1cc2c(c(OC)c1OC)-c1ccc(SC)c(=O)cc1[C@@H](N(C(C)=O)C(=O)CNC(=O)C(F)(F)F)CC2` [Compound 48, N-[(7S)-1,2-dimethoxy-10-methylsulfanyl-9-oxo-3-(prop-2-enoxy)-5,6,7,9-tetrahydrobenzo[α]heptalen-7-yl]-N-[(trifluoroacetyl)glycyl]acetamide], the “fold lower IC50 than IC50 of (39)” value in series [5] is given as “about 8 fold”.
